From patent US20260250320A1, “LIPIDATED PEPTIDE INHIBITORS OF INTERLEUKIN-23 RECEPTOR” (Janssen Pharmaceutica NV, priority 2023, published 2026)
*1 amine or outer side, *2 acyl side, *3 side chain or, on linkers, in order; H or OH if unused. Where a SMILES comes first, the peptide text is derived from it. Bridges are numbered along the chain shown (N, C = ends). Side-chain parts run from the residue outwards. [ ]: non-standard residue; d: D form. The star is where a group is joined. ξ: configuration not given here. X41 = C[N+](C)(CCCCC*)CCOCCOCCNC(=O)COCCOCCCC(=O)CC[C@H](CC(=O)CCCCCCCCCCCCCCCCC(=O)O)C(=O)O; X4 = C[N+](C)(CCCCCCc1ccc(C[C@H](N[*:1])C(=O)[*:2])cc1)CCOCCOCCN[*:3]; Me3N+(CH2)2O(CH2)2O(CH2)2CO = C[N+](C)(C)CCOCCOCCC(=O)*; Biotin = O=C1N[C@H]2[C@H](CS[C@H]2CCCCC(=O)*)N1; Trp(7-Me) = Cc1cccc2c(C[C@H](N)C(=O)O)c[nH]c12; C18 diacid = O=C(O)CCCCCCCCCCCCCCCCC(=O)*; γGlu = O=C(O)[C@H](CCC(=O)[*:2])N[*:1]; 2Nal = N[C@@H](Cc1ccc2ccccc2c1)C(=O)O; AEF = NCCOc1ccc(C[C@H](N)C(=O)O)cc1; X2 = C[N+](C)(C)C[C@@H](CC(=O)O)N*; αMeT = C[C@@H](O)[C@](C)(N)C(=O)O; 3Pal = N[C@@H](Cc1cccnc1)C(=O)O; Lys(Me) = CNCCCC[C@H](N)C(=O)O; PEG4 = NCCOCCOCCOCCOCCC(=O)O; Pen = CC(C)(S)[C@H](N)C(=O)O; Suc = O=C(CCC(=O)[*:2])[*:1]; Thp = NC1(C(=O)O)CCOCC1; X1 = C[N+](C)(C)CCCCC*; ξN = NC(=O)CC(N)C(=O)O; AEEA = NCCOCCOCC(=O)O; Sar = CNCC(=O)O

Assays:
[1] = tested on: IL-23-stimulated phosphorylated STAT3 in peripheral blood mononuclear cells (PBMCs); test: PBMC pSTAT3 Assay; type: cell-based; conditions: PBMCs from healthy donors; 30 min preincubation with peptide; IL-23 5 ng/mL for 30 min; phospho-STAT3 by MSD
In short: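 Phospho-STAT3 quantified by Meso Scale assay in lysates of PBMCs exposed to IL-23 (5 ng/mL, 30 min, 37 °C) after 30 min peptide pretreatment. Cells were cryopreserved donor PBMCs activated 4 days with anti-CD3 plus IL-1β (100 ng/mL) and starved ~4 h; IC50 reported.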

[2] = target: T1, IL-23R (Homo sapiens, UniProt Q5VWK5); test: IL23R Reporter Assay; type: cell-based; conditions: HEK293 cells containing IL-23R, IL-12Rβ1 and STAT-inducible firefly luciferase reporter; 10 ng/mL IL-23 (EC90); 5 h
T1 construct: HEK293 cells containing IL-23R, IL-12Rβ1 and a firefly luciferase reporter gene driven by a STAT-inducible promoter (Promega); host or cells: HEK293
T1 sequence (Q5VWK5 24-629): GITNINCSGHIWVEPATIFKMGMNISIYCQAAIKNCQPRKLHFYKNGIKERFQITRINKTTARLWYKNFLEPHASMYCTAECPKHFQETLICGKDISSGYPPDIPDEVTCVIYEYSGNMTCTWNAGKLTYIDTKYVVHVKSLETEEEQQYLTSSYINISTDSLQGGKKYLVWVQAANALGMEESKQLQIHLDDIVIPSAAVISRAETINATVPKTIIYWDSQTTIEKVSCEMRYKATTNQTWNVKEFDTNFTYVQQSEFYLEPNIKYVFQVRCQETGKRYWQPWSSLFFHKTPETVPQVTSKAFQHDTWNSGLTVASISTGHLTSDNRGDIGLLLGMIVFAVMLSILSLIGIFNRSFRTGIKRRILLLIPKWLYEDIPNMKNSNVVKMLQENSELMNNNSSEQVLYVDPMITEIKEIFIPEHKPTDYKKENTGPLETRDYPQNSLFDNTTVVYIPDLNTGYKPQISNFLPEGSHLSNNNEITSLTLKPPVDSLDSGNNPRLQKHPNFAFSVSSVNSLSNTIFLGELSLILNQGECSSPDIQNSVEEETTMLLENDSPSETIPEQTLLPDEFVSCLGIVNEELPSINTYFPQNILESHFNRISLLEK
In short: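 IC50 values were fitted with a 4-parameter Hill equation to luciferase signal, scaled between IL-23-only wells (0% inhibition) and 30 μM reference inhibitor (100%). The readout was a STAT-inducible reporter in IL-23R/IL-12Rβ1 HEK293 cells, stimulated with added 10 ng/mL IL-23 (EC90) for 5 h at 37° C and developed with BioGlo.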

Row | IC50 [2] [nM] | SMILES | IC50 [1] [nM]
1 | 50 to 500 | CC(=O)NCCCC[C@@H]1NC(=O)[C@H](Cc2c[nH]c3c(C)cccc23)NC(=O)[C@H]([C@@H](C)O)NC(=O)[C@H](CCCCNC(=O)COCCOCCNC(=O)COCCOCCNC(=O)CC[C@H](NC(=O)CCCCCCCCCCCCCCCCC(=O)O)C(=O)O)NC(=O)[C@@H](NC(C)=O)C(C)(C)SSC(C)(C)[C@@H](C(=O)N[C@@H](Cc2ccc(OCCN)cc2)C(=O)N[C@@H](Cc2ccc3ccccc3c2)C(=O)NC2(C(=O)N[C@@H](CCCCNC(=O)CCC(=O)N[C@H](CC(=O)O)C[N+](C)(C)C)C(=O)N[C@@H](CC(N)=O)C(=O)N[C@@H](Cc3cccnc3)C(=O)N(C)CC(N)=O)CCOCC2)NC1=O [compound 15, MeCO-r-Pen(3)-N-T-7MeW-K(PEG2PEG2gEC18OH)-Pen(3)-AEF-2Nal-THP-K(d)-N-3Pya-Sar-CONH2] (Ac-[Pen]K([AEEA-AEEA-γGlu-C18 diacid])T[Trp(7-Me)]K(Ac)[Pen][AEF][2Nal][Thp]K([Suc-X2])N[3Pal][Sar]-NH2; disulfide 1-6) | 0.5 to 5
2 | < 50 | CC(=O)N(C)CCCC[C@@H]1NC(=O)[C@H](Cc2c[nH]c3c(C)cccc23)NC(=O)[C@H]([C@@H](C)O)NC(=O)[C@H](CC(=O)N(C)C)NC(=O)[C@@H](NC(=O)CCOCCOCC[N+](C)(C)C)C(C)(C)SSC(C)(C)[C@@H](C(=O)N[C@@H](Cc2ccc(OCCCCC[N+](C)(C)CCOCCOCCNC(=O)COCCOCCCC(=O)CC[C@H](CC(=O)CCCCCCCCCCCCCCCCC(=O)O)C(=O)O)cc2)C(=O)N[C@@H](Cc2ccc3ccccc3c2)C(=O)NC2(C(=O)N[C@@H](CCCCN(C)C(C)=O)C(=O)N[C@@H](CC(N)=O)C(=O)N[C@@H](Cc3cccnc3)C(=O)N(C)CC(=O)N(C)C)CCOCC2)NC1=O [compound 144, cPEG3aCO-Pen(3)-N(N(Me)2)-T-7MeW-K(NMeAc)-Pen(3)-TMAPF(PEG2PEG2gEC18OH)-2Nal-THP-K(NMeAc)-N-3Pya-Sar-CON(Me)2] ({Me3N+(CH2)2O(CH2)2O(CH2)2CO}-[Pen]D(NMe2)T[Trp(7-Me)][Lys(Me)](Ac)[Pen]Y(X41)[2Nal][Thp][Lys(Me)](Ac)N[3Pal][Sar]-NMe2; disulfide 1-6) | 0.5 to 5
3 | 50 to 500 | CC(=O)N[C@H](CCCNC(=N)N)C(=O)N[C@@H]1C(=O)N[C@@H](CCCCNC(=O)COCCOCCNC(=O)COCCOCCNC(=O)CC[C@H](NC(=O)CCCCCCCCCCCCCCCCC(=O)O)C(=O)O)C(=O)N[C@@H]([C@@H](C)O)C(=O)N[C@@H](Cc2c[nH]c3c(C)cccc23)C(=O)N[C@@H](CCCCN(C)C(=O)CCOCCOCC[N+](C)(C)C)C(=O)N[C@H](C(=O)N[C@@H](Cc2ccc(OCCN)cc2)C(=O)N[C@@H](Cc2ccc3ccccc3c2)C(=O)NC2(C(=O)N[C@@H](CCC(=O)O)C(=O)N[C@@H](CC(N)=O)C(=O)N[C@@H](Cc3cccnc3)C(=O)N(C)CC(N)=O)CCOCC2)C(C)(C)SSC1(C)C [compound 77, 5cpaCO-Pen(3)-N-T-7MeW-K(Ac)-Pen(3)-AEF-2Nal-THP-K(PEG2PEG2gEC18OH)-N-3Pya-Sar-CONH2] (Ac-[dR][Pen]K([AEEA-AEEA-γGlu-C18 diacid])T[Trp(7-Me)][Lys(Me)](Me3N+(CH2)2O(CH2)2O(CH2)2CO)[Pen][AEF][2Nal][Thp]EN[3Pal][Sar]-NH2; disulfide 2-7) | < 0.5
4 | ≥ 500 | CC(=O)N(C)CCCC[C@@H]1NC(=O)[C@H](Cc2c[nH]c3c(C)cccc23)NC(=O)[C@H]([C@@H](C)O)NC(=O)[C@H](CC(=O)N(C)C)NC(=O)[C@@H](NC(=O)CCOCCOCC[N+](C)(C)C)C(C)(C)SSC(C)(C)[C@@H](C(=O)N[C@@H](Cc2ccc(CCCCCC[N+](C)(C)CCOCCOCCNC(=O)COCCOCCNC(=O)CC[C@H](NC(=O)CCCCCCCCCCCCCCCCC(=O)O)C(=O)O)cc2)C(=O)N[C@@H](Cc2ccc3ccccc3c2)C(=O)NC2(C(=O)N[C@@H](CC(N)=O)C(=O)N[C@@H](Cc3cccnc3)C(=O)N(C)CC(=O)N(C)C)CCOCC2)NC1=O [compound 143, cPEG3aCO-Pen(3)-N(N(Me)2)-T-7MeW-K(NMeAc)-Pen(3)-TMAPF(PEG2PEG2gEC18OH)-2Nal-THP-N-3Pya-Sar-CON(Me)2] ({Me3N+(CH2)2O(CH2)2O(CH2)2CO}-[Pen]D(NMe2)T[Trp(7-Me)][Lys(Me)](Ac)[Pen][X4]([AEEA-γGlu-C18 diacid])[2Nal][Thp]N[3Pal][Sar]-NMe2; disulfide 1-6) | ≥ 5
5 | < 50 | CC(=O)NCCCC[C@@H]1NC(=O)[C@H](Cc2c[nH]c3c(C)cccc23)NC(=O)[C@](C)([C@@H](C)O)NC(=O)C(CC(N)=O)NC(=O)[C@@H](NC(=O)[C@@H](CCCNC(=N)N)NC(C)=O)C(C)(C)SSC(C)(C)[C@@H](C(=O)N[C@@H](Cc2ccc(OCCN)cc2)C(=O)N[C@@H](Cc2ccc3ccccc3c2)C(=O)NC2(C(=O)N[C@@H](CCCCNC(=O)CCOCCOCCOCCOCCNC(=O)CCCC[C@@H]3SC[C@@H]4NC(=O)N[C@@H]43)C(=O)N[C@@H](CC(N)=O)C(=O)N[C@@H](Cc3cccnc3)C(=O)N(C)CC(=O)N[C@@H](CCCCNC(=O)COCCOCCNC(=O)COCCOCCNC(=O)CC[C@H](NC(=O)CCCCCCCCCCCCCCCCC(=O)O)C(=O)O)C(N)=O)CCOCC2)NC1=O (stereo partly drawn) [compound 56, MeCO-r-Pen(3)-N-T-7MeW-K(Ac)-Pen(3)-AEF-2Nal-THP-K(BiotinPEG4)-N-3Pya-Sar-K(PEG2PEG2gEC18OH)-CONH2] (Ac-[dR][Pen][ξN][αMeT][Trp(7-Me)]K(Ac)[Pen][AEF][2Nal][Thp]K([PEG4-Biotin])N[3Pal][Sar]K([AEEA-AEEA-γGlu-C18 diacid])-NH2; disulfide 2-7) | < 0.5
6 | < 50 | CC(=O)NCCCC[C@@H]1NC(=O)[C@H](Cc2c[nH]c3c(C)cccc23)NC(=O)[C@H]([C@@H](C)O)NC(=O)[C@H](CC(N)=O)NC(=O)[C@@H](NC(=O)[C@H](CCCCNC(=O)COCCOCCNC(=O)COCCOCCNC(=O)CC[C@H](NC(=O)CCCCCCCCCCCCCCCCC(=O)O)C(=O)O)NC(C)=O)C(C)(C)SSC(C)(C)[C@@H](C(=O)N[C@@H](Cc2ccc(OCCCCC[N+](C)(C)C)cc2)C(=O)N[C@@H](Cc2ccc3ccccc3c2)C(=O)NC2(C(=O)N[C@@H](CCCCNC(C)=O)C(=O)NC(CC(N)=O)C(=O)N[C@@H](Cc3cccnc3)C(=O)N(C)CC(N)=O)CCOCC2)NC1=O (stereo partly drawn) [compound 62, MeCO-K(PEG2PEG2gEC18OH)-Pen(3)-N-T-7MeW-K(Ac)-Pen(3)-TMAPF-2Nal-THP-K(Ac)-3-Pya-Sar-CONH2] (Ac-K([AEEA-AEEA-γGlu-C18 diacid])[Pen]NT[Trp(7-Me)]K(Ac)[Pen]Y(X1)[2Nal][Thp]K(Ac)[ξN][3Pal][Sar]-NH2; disulfide 2-7) | < 0.5
7 | 50 to 500 | CC(=O)NCCCC[C@@H]1NC(=O)[C@H](Cc2c[nH]c3c(C)cccc23)NC(=O)[C@H]([C@@H](C)O)NC(=O)[C@H](CC(N)=O)NC(=O)[C@@H](NC(=O)[C@@H](CCCCNC(=O)COCCOCCNC(=O)COCCOCCNC(=O)CC[C@H](NC(=O)CCCCCCCCCCCCCCCCC(=O)O)C(=O)O)NC(C)=O)C(C)(C)SSC(C)(C)[C@@H](C(=O)N[C@@H](Cc2ccc(OCCN)cc2)C(=O)N[C@@H](Cc2ccc3ccccc3c2)C(=O)NC2(C(=O)N[C@@H](CCC(=O)O)C(=O)N[C@@H](CC(N)=O)C(=O)N[C@@H](Cc3cccnc3)C(=O)N(C)CC(N)=O)CCOCC2)NC1=O [compound 58, MeCO-k(PEG2PEG2gEC18OH)-Pen(3)-N-T-7MeW-K(Ac)-Pen(3)-AEF-2Nal-THP-E-N-3Pya-Sar-CONH2] (Ac-[dK]([AEEA-AEEA-γGlu-C18 diacid])[Pen]NT[Trp(7-Me)]K(Ac)[Pen][AEF][2Nal][Thp]EN[3Pal][Sar]-NH2; disulfide 2-7) | < 0.5
